Reference: US8236783B2, “ROS-sensitive iron chelators and methods of using the same” (Duke University, priority 2006, dated 2012)
“Also recorded” adds a separate entry of the source.

Assays:
[1] = 2-deoxyribose oxidative degradation assay (hydroxyl radical formation); details: chelator 0-400 μM, 200 μM H2O2, 10 μM FeCl3, 2 mM ascorbic acid, 15 mM deoxyribose, pH 7.4, 60 min at 37° C.
Description: Effect of chelator concentration on deoxyribose degradation by OH.. A and A0 are the absorbance at 532 nm in the presence or absence of chelator, respectively. Values below A/Ao=1 indicate protection of deoxyribose. Conditions: 200 μM H2O2, 10 μM FeCl3, 2 mM ascorbic acid, 15 mM deoxyribose in pH 7.4 NaHPO4 buffer.
Values of A/Ao above 1 indicate that the additive promotes OH. formation, whereas values below 1 indicate that the additive either scavenges OH. more efficiently than deoxyribose, or that it inhibits iron-catalyzed OH. formation via effective iron chelation.
The formation of hydroxyl radicals was measured by using a 2-deoxyribose oxidative degradation assay (Aruoma, O. I., Deoxyribose Assay for Detecting Hydroxyl Radicals. In Methods in Enzymol., 1994; Vol. 233, pp 57-66; Halliwell, B. et al., Anal. Biochem. 1987, 165, 215-219). In this assay, hydroxyl radicals, generated by reaction of an iron complex with H2O2 in the presence of ascorbic acid as a reducing agent, attack 2-deoxyribose to form malondialdehyde, which upon heating with TBA at low pH yields a pink chromogen (λmax=532 nm). Scavengers that react more effectively with hydroxyl radicals than deoxyribose result in less chromogen formation. Chelators that prevent iron from reacting with H2O2 also result in a decrease in absorption at 532 nm. Many standard buffers such as HEPES and TRIS are hydroxyl radical scavengers; therefore, we performed all assays in 50 mM NaH2PO4 buffered to pH 7.4. Our standard reaction conditions consisted of 1-mL buffered solutions prepared by sequential addition of the following reagents at their final concentrations: chelator (0-400 μM), FeCl3 (10 μM), 2-deoxyribose (15 mM), H2O2 (200 μM) and ascorbic acid (2 mM). The reactions were stirred for 60 min at 37° C., then quenched with 1 mL of TBA (1% w/v in 0.05 M NaOH) and 1 mL of TCA (2.8% w/v in water). After heating to 100° C. for 20 min, the solutions were cooled to room temperature and their absorbance at 532 nm recorded. The data are reported as A/Ao, where A is the absorbance at a 532 nm at a specific chelator concentration, and Ao is the absorbance at 532 nm for the background reaction containing no added chelator. All measurements were done in triplicate, and error bars reflect the standard deviation from triplicate runs.

[2] = UV-vis spectra of iron complex formation; type: physicochemical; details: 60 μM BSIH, 30 μM Fe(NO3)3 in MeOH
Text: FIG. 1. […] The expanded view in the inset compares the mono and bis species [Fe(SIH)Cl2(CH3OH)] and [Fe(SIH)2]NO3, respectively.
These two species are distinguishable by a ligand-field band centered at 658 nm that is more pronounced in the mono species compared to the bis species (FIG. 1 inset).

[3] = time course for iron complex formation following addition of excess H2O2 (UV-vis); type: physicochemical; details: 100 mM H2O2 added to 1.5 mM Fe(NO3)3 and 3.0 mM BSIH in MeOH
Description: FIG. 2. UV-vis spectra showing the formation of [Fe(SIH)]^2+ and [Fe(SIH)2]^+ upon addition of 100 mM H2O2 to a solution of 1.5 mM Fe(NO3)3 and 3.0 mM BSIH in MeOH.
Although the kinetics are complicated by the mono to bis Fe(SIH)x coordination, the data fit a pseudo first-order expression to give kobs=1.6×10^−3 s^−1.

Row | SMILES | effect of chelator concentration on deoxyribose degradation, A/Ao at 532 nm [1] | iron complex formation after addition of H2O2 (UV-vis spectrum) ([2]; 0.6 mM H2O2 added) | complex formation with Fe^3+ (UV-vis spectrum) ([2]; no H2O2) | kobs (pseudo first-order) for iron complex formation [3] [s⁻¹]
1 | CC1(C)OB(c2ccccc2C=O)OC1(C)C [Bsal, (2-formylphenyl)boronic acid pinacol ester] | Neither Bsal nor Sal has a significant influence | – | – | –
2 | O=C(NN=Cc1ccccc1O)c1ccncc1 [SIH, salicylaldehyde isonicotinoyl hydrazone] | decrease | – | – | –
3 | CC(=O)N(O)CCCCCNC(=O)CCC(=O)N(O)CCCCCNC(=O)CCC(=O)N(O)CCCCCN [DFO, desferrioxamine] | decrease | – | – | –
4 | CC1(C)OB(c2ccccc2C=NNC(=O)c2ccncc2)OC1(C)C [BSIH, Isonicotinic acid [2-(4,4,5,5-tetramethyl-[1,3,2]dioxaborolan-2-yl)-benzylidene]-hydrazide] | protects against deoxyribose degradation as well as both DFO and SIH | results in formation of a new spectrum matching that of [Fe(SIH)2]^+; also recorded: results in a spectrum (open circles) that matches that of [Fe(SIH)2]^+ | does not form a complex; also recorded: no complex formation | 0.0016
5 | O=C(O)CN(CCN(CC(=O)O)CC(=O)O)CC(=O)O [EDTA] | significant increase | – | – | –
